Reference: paper PMC4948680 (European journal of pharmaceutical sciences : official …, 2016)

Assays:
[1] = design: species or system mice
Protocol: Clearance kinetics in each organ was determined by exponential curve fitting. The time-integrated activity concentration (TIAC) was obtained by integration of this exponential curve folded with the decay curve of ^111In and ^177Lu.Mouse dosimetry was calculated for both ^177Lu and ^111In using the TIAC and the 25 g RADAR mouse absorbed dose rates per unit activity S for each source and target organ combination ([Keenan et al., 2010]; [Konijnenberg et al., 2014]).

in vivo = test: in vivo; design: species or system Swiss albino mice; conditions: mouse; for tissue uptake at 0.5 h / tissue uptake at 1 h / tissue uptake at 4 h / tissue uptake at 48 h / tissue uptake at 72 h / tissue uptake at 24 h: Swiss albino, iv, 10 pmol peptide, total radioactivity, %ID/g tissue
Protocol: Samples of blood and tissues of interest were excised, weighted and counted for radioactivity in the gamma counter (automated well-type multi-sample gamma counter; NaI(Tl) 3'' crystal, Canberra Packard Auto-Gamma 5000 series instrument). Data was calculated as percent injected dose per gramtissue (%ID/g) with the aid of suitable standards of the injected dose. Statistical analysis using the unpaired two-tailed Student's t-test was performed to compare values between A431-CCK2R(+) and A431-CCK2R(-) tumours, as well as kidney, stomach and A431-CCK2R(+) tumour values between 4 h control and gelofusine-treated animal groups; values P < 0.05 were considered statistically significant (Table 2). The pharmacokinetic profile was determined by fitting an exponential curve through the organ time-activity data according to the least-squares method. The number of exponentials in the fitted curve was analysed according to the […] Information Criterion (AICc). All fitting was performed with Graphpad Prism version 5.

## CSCC[C@H](NC(=O)[C@H](Cc1c[nH]c2ccccc12)NC(=O)CNC(=O)[C@H](Cc1ccc(O)cc1)NC(=O)[C@H](C)NC(=O)[C@@H](CCC(=O)O)NC(=O)[C@@H](CCC(=O)O)NC(=O)[C@@H](CCC(=O)O)NC(=O)[C@@H](CCC(=O)O)NC(=O)[C@@H](CCC(=O)O)NC(=O)[C@@H](CCC(=O)O)NC(=O)CN1CCN(CC(=O)O)CCN(CC(=O)O)CCN(CC(=O)O)CC1)C(=O)N[C@@H](CC(=O)O)C(=O)N[C@@H](Cc1ccccc1)C(N)=O [^111In-CP04, ^111In-DOTA-(DGlu)6-Ala-Tyr-Gly-Trp-Met-Asp-Phe-NH2, metal not drawn]
[1]
  Absorbed dose per injected activity, Bone: 9 mGy/MBq
  Absorbed dose per injected activity, Kidneys: 56 mGy/MBq
  Absorbed dose per injected activity, Large intestine: 7 mGy/MBq
  Absorbed dose per injected activity, Liver: 3 mGy/MBq
  Absorbed dose per injected activity, Lungs: 3 mGy/MBq
  Absorbed dose per injected activity, Pancreas: 5 mGy/MBq
  Absorbed dose per injected activity, Small intestine: 7 mGy/MBq
  Absorbed dose per injected activity, Spleen: 3 mGy/MBq
  Absorbed dose per injected activity, Stomach wall: 15 mGy/MBq
  Absorbed dose per injected activity, Total body: 4 mGy/MBq
In vivo; Blood
  tissue uptake at 0.5 h: 1.74 ± 0.22 %ID/g
  tissue uptake at 1 h: 0.51 ± 0.14 %ID/g
  tissue uptake at 4 h: 0.02 ± 0.01 %ID/g
  tissue uptake at 48 h: 0.01 ± 0.01 %ID/g
  tissue uptake at 72 h: 0.01 ± 0.01 %ID/g
In vivo; Femur
  tissue uptake at 0.5 h: 4.62 ± 1.24 %ID/g
  tissue uptake at 1 h: 2.62 ± 0.42 %ID/g
  tissue uptake at 4 h: 0.96 ± 0.18 %ID/g
  tissue uptake at 24 h: 0.53 ± 0.04 %ID/g
  tissue uptake at 48 h: 0.55 ± 0.11 %ID/g
  tissue uptake at 72 h: 0.49 ± 0.06 %ID/g
In vivo; Heart
  tissue uptake at 0.5 h: 0.7 ± 0.1 %ID/g
  tissue uptake at 4 h: 0.03 ± 0.01 %ID/g
  tissue uptake at 24 h: 0.02 ± 0.01 %ID/g
  tissue uptake at 48 h: 0.02 ± 0.01 %ID/g
  tissue uptake at 72 h: 0.03 ± 0.02 %ID/g
In vivo; Intestines
  tissue uptake at 0.5 h: 0.82 ± 0.14 %ID/g
  tissue uptake at 1 h: 0.39 ± 0.12 %ID/g
  tissue uptake at 4 h: 1.05 ± 0.35 %ID/g
  tissue uptake at 48 h: 0.08 ± 0.02 %ID/g
  tissue uptake at 72 h: 0.09 ± 0.04 %ID/g
In vivo; Kidneys
  tissue uptake at 0.5 h: 9.8 ± 2.07 %ID/g
  tissue uptake at 1 h: 8.84 ± 2.05 %ID/g
  tissue uptake at 4 h: 7.9 ± 1.98 %ID/g
  tissue uptake at 24 h: 3.61 ± 0.31 %ID/g
  tissue uptake at 48 h: 2.81 ± 0.63 %ID/g
  tissue uptake at 72 h: 2.62 ± 0.24 %ID/g
In vivo; Liver
  tissue uptake at 0.5 h: 0.77 ± 0.11 %ID/g
  tissue uptake at 1 h: 0.32 ± 0.15 %ID/g
  tissue uptake at 24 h: 0.06 ± 0.01 %ID/g
  tissue uptake at 48 h: 0.06 %ID/g
  tissue uptake at 72 h: 0.05 ± 0.01 %ID/g
In vivo; Lung
  tissue uptake at 0.5 h: 1.05 ± 0.1 %ID/g
  tissue uptake at 1 h: 0.4 ± 0.1 %ID/g
  tissue uptake at 4 h: 0.06 ± 0.01 %ID/g
  tissue uptake at 24 h: 0.03 ± 0.01 %ID/g
  tissue uptake at 48 h: 0.02 ± 0.01 %ID/g
  tissue uptake at 72 h: 0.03 ± 0.01 %ID/g
In vivo; Muscle
  tissue uptake at 0.5 h: 0.59 ± 0.1 %ID/g
  tissue uptake at 4 h: 0.04 ± 0.02 %ID/g
  tissue uptake at 24 h: 0.02 ± 0.01 %ID/g
  tissue uptake at 48 h: 0.03 ± 0.02 %ID/g
  tissue uptake at 72 h: 0.03 ± 0.02 %ID/g
In vivo; Pancreas
  tissue uptake at 0.5 h: 0.67 ± 0.08 %ID/g
  tissue uptake at 4 h: 0.1 ± 0.01 %ID/g
  tissue uptake at 24 h: 0.05 ± 0.01 %ID/g
  tissue uptake at 48 h: 0.04 ± 0.01 %ID/g
  tissue uptake at 72 h: 0.06 ± 0.03 %ID/g
In vivo; Spleen
  tissue uptake at 0.5 h: 0.36 ± 0.04 %ID/g
  tissue uptake at 4 h: 0.05 ± 0.01 %ID/g
  tissue uptake at 24 h: 0.04 ± 0.01 %ID/g
  tissue uptake at 48 h: 0.03 ± 0.01 %ID/g
  tissue uptake at 72 h: 0.04 ± 0.01 %ID/g
In vivo; Stomach
  tissue uptake at 0.5 h: 4.88 ± 0.85 %ID/g
  tissue uptake at 1 h: 2.99 ± 0.55 %ID/g
  tissue uptake at 4 h: 2.61 ± 0.82 %ID/g
  tissue uptake at 24 h: 1.48 ± 0.55 %ID/g
  tissue uptake at 48 h: 1.26 ± 0.26 %ID/g
  tissue uptake at 72 h: 0.92 ± 0.04 %ID/g
In vivo
  gastrointestinal tract clearance: 2.5%
  total body clearance T1/2, fast component (90%): 17 min
  total body clearance, fraction of fast component: 90%
  total body clearance, fraction of slow component: 10%
